Entries after “also recorded” stand apart in the source; their conditions may differ.
Assays:
Format in all cases: in vivo
male CD1 albino mice [1] = experiment: Locomotor activity (horizontal and vertical) in the mouse
Experimental: The animals were placed in groups of 20 in plexiglass cages (38×24×18 cm) and kept in a ventilated animal facility where the temperature was maintained at 21±1° C. The animals had free access to water and food; artificial lighting established a day/night cycle (daytime between 7:00 a.m. and 7:00 p.m.). Experiments were conducted between 11:00 a.m. and 6:00 p.m. […] The solutions were stabilized with Cremophor EL (Sigma) to a final concentration of 15%. The solutions were injected by intraperitoneal route in a dose of 10 ml/kg. Before each test, the animals were isolated for 20 minutes in plexiglass cages (27×13×13 cm); they had food at their disposal. […] Photoelectric sensors in the chambers measured the horizontal and vertical activity of the animals, expressed as the number of interrupted beams, and the data was analyzed using a software application (Omnitech Electronics Inc., Columbus, Ohio, USA). […] Animals were placed in the activity monitoring system immediately after receiving the injection. The chambers were cleaned after each animal's test.

male CD1 albino mice [2] = experiment: Hole-board test in the mouse; conditions: 50 mg/kg; for number of edges explored / number of holes explored: 20 minutes after injection, vs solvent
Experimental: The hole-board test investigates curiosity and is negatively affected by anxiety. This apparatus, placed 60 cm above the floor, consists of a square platform of opaque plastic, 40 cm on each side, with 16 evenly distributed holes of such size that an animal is able to pass its head through. The animals were injected and then isolated for 20 minutes before being placed at the center of the platform. The number of holes and edges explored by each animal was counted. The apparatus was cleaned after each animal's test.

male CD1 albino mice [3] = experiment: Black-white box test in the mouse; conditions: 50 mg/kg; for amount of time spent in the lighted compartment: 20 minutes after injection, vs controls
Experimental: The black-white box test measures the state of anxiety of animals as a function of their aversion to light. The apparatus consists of two compartments of the same size (length=21 cm, width=15 cm, height=25 cm), one painted white and illuminated by a 40 W bulb, the other painted black and closed with a cover. The animal can pass from one compartment to the other via to an opening 5 cm-square in the lower portion of the partition. After the injection, the animals were isolated for 20 minutes and then placed in the black compartment with their head facing the corner opposite the opening. Using a mirror placed above the apparatus, the time before first entering the lit compartment, the number of times entering and the time spent in the lighted compartment were measured. The two compartments were cleaned between each test.

male CD1 albino mice [4] = experiment: Raised cross-shaped labyrinth test in the mouse; conditions: for anxiogenic effect in the raised cross-shaped labyrinth test / number of times the mice entered the open arm: 50 mg/kg; for number of times the mice entered the open arm: five minutes recording
From the text: The raised cross-shaped labyrinth test measures the animals' anxiety level based on its spontaneous aversion to voids (80). The apparatus is composed of four arms, placed at right angles, each measuring 18×6 cm; it rests on a pedestal 60 cm above the floor. Two of the arms have 6 cm-high side walls and are laid out end to end; these are the “closed” arms. […] After receiving their injections, the animals were isolated for twenty minutes and then placed in the labyrinth, at the center of the cross, with their head in the direction of a closed arm. Movements by the animals were recorded for five minutes by a video camera connected to image analysis software (Videotrack). The labyrinth was cleaned after each animal's test.

male Wistar rats = experiment: Vogel conflict test in the rat; conditions: intraperitoneal, 1, 10, 25 and 50 mg/kg
Experimental: Experiments were performed using male Wistar rats weighing 180 g to 280 g according to the procedure described by Vogel et al. (Psychopharmacologia, 1971, 21: 1-7). Animals were deprived of water for 48 hours and then individually placed in a plexiglass chamber (15×32×34 cm) whose floor consisted of conducting metal bars spaced 1 cm apart. In the center of one of the chamber's walls was placed a metal cup connected to an electric shock generator (1.7 mA; 1 s).
During the test, the animal, which is left free to explore the apparatus, receives an electric shock each time it consumes water from the cup. A researcher blind to the treatment received by the animal counts the number of times that the animal consumes water and is punished by the electric shock. An increase in the number of times an animal consumes water indicates an anxiolytic effect, whereas a reduction in this number indicates an anxiogenic effect.
(§1) Paraxanthine was dissolved under heating in sodium benzoate (30 mg/ml) with the addition of Cremophor EL to a final concentration of 15% and administered by intraperitoneal route at doses of 1 mg/kg, 10 mg/kg, 25 mg/kg and 50 mg/kg. Clobazam was used as the reference anxiolytic; it was dispersed in a 0.2% hydroxypropylmethylcellulose solution and administered by intraperitoneal route at a dose of 32 mg/kg.

NMRI mice = experiment: Four-plate test in the mouse; conditions: intraperitoneal, 25 mg/kg (P<0.05)
Experimental: Experiments were performed using NMRI mice weighing 20 g to 30 g according to the method described by Aron et al. (Neuropharmacology, 1971, 10:459-469). Animals were placed in a plastic chamber whose floor consisted of four metal plates independently connected to an electric shock generator (2.5 mA; 1.5 s). The animal is initially left free to explore the apparatus for 15 seconds, after which it receives an electric shock each time it crosses between two metal plates. An increase in the number of crossings indicates anxiolytic activity, whereas a reduction in this number indicates anxiogenic activity.
as §1, with “16” for “32”

Cn1c(=O)c2c(ncn2C)n(C)c1=O [caffeine, 1,3,7-Trimethylxanthine]
duration of stimulation of horizontal locomotor activity (male CD1 albino mice [1]; intraperitoneal, 10 mg/kg): at least one hour | vertical locomotor activity (male CD1 albino mice [1]; intraperitoneal, 10 mg/kg, significant only 30 minutes after the injection (P<0.05)): stimulated the animals' vertical locomotor activity | horizontal locomotor activity (male CD1 albino mice [1]; intraperitoneal, 10 mg/kg, within the first 10 minutes (P<0.05)): stimulated animals' horizontal locomotor activity | duration of stimulation of horizontal locomotor activity (male CD1 albino mice [1]; intraperitoneal, 25 mg/kg): 40 min | horizontal locomotor activity (male CD1 albino mice [1]; intraperitoneal, 25 mg/kg, 10 minutes after the injection (P<0.05)): stimulated this activity | duration of decrease of vertical activity (male CD1 albino mice [1]; intraperitoneal, 100 mg/kg): 40 min | vertical locomotor activity (male CD1 albino mice [1]; intraperitoneal, 100 mg/kg, from the first measurement period (P<0.05)): vertical activity decreased relative to that of the controls | horizontal activity for one hour (cumulative) (male CD1 albino mice [1]; intraperitoneal, 60 minutes): stimulated by caffeine only at doses of 10 mg/kg (P<0.01) and 25 mg/kg (P<0.05) | horizontal locomotor activity (male CD1 albino mice [1]; intraperitoneal, doses lower than 10 mg/kg or higher than 25 mg/kg, vs solvent alone): no significant difference | range of doses with stimulating effect on locomotor activity (male CD1 albino mice [1]; same conditions): 10 to 25 mg/kg | stimulating effect on locomotor activity compared with paraxanthine (male CD1 albino mice [1]; same conditions): the effect is less | anxiogenic effect in the hole-board test (male CD1 albino mice [2]): has an anxiogenic effect; also recorded: had an anxiogenic effect | number of edges explored (male CD1 albino mice [2]): significantly decreased | number of holes explored (male CD1 albino mice [2]): significantly decreased | anxiolytic effect in the black-white box test (male CD1 albino mice [3]): does not; also recorded: did not have an anxiolytic effect | amount of time spent in the lighted compartment (male CD1 albino mice [3]): did not change | anxiogenic effect in the raised cross-shaped labyrinth test (male CD1 albino mice [4]): is anxiogenic; also recorded: has an anxiogenic effect | number of times the mice entered the open arm (male CD1 albino mice [4]): reduced the number of times the mice entered the open arm

Cn1c(=O)[nH]c2ncn(C)c2c1=O [paraxanthine, 1,7-dimethyl-3,7-dihydro-1H-purine-2,6-dione]
stimulating effect on locomotor activity (male CD1 albino mice [1]; doses from 1 mg/kg up to 50 mg/kg): dose-dependant stimulating effect | duration of stimulation of horizontal locomotor activity (male CD1 albino mice [1]; intraperitoneal, 1 mg/kg): 30 min | horizontal locomotor activity (male CD1 albino mice [1]; intraperitoneal, 1 mg/kg, from the first 10-minute measurement period, vs solvent (P<0.05 or P<0.01)): stimulated horizontal locomotor activity | vertical locomotor activity (male CD1 albino mice [1]; intraperitoneal, comparable to horizontal activity, effect of 1 mg/kg more difficult to demonstrate): stimulated the animals' vertical locomotor activity | duration of stimulation of horizontal locomotor activity (male CD1 albino mice [1]; intraperitoneal, doses higher than 1 mg/kg): at least one hour | horizontal locomotor activity (male CD1 albino mice [1]; intraperitoneal, doses higher than 1 mg/kg (P<0.01 or P<0.001)): the effect was more marked | anxiogenic effect in the hole-board test (male CD1 albino mice [2]): not the case; also recorded: did not | number of edges explored (male CD1 albino mice [2]): did not have any effect | number of holes explored (male CD1 albino mice [2]): did not have any effect | anxiolytic effect in the black-white box test (male CD1 albino mice [3]): has an anxiolytic effect; also recorded: exhibited an anxiolytic effect | amount of time spent in the lighted compartment (male CD1 albino mice [3]): increased the amount of time spent in the lighted compartment | number of times entering the lighted compartment (male CD1 albino mice [3]; vs animals treated with caffeine (P<0.05)): went into the lighted compartment more often than animals treated with caffeine | anxiogenic effect in the raised cross-shaped labyrinth test (male CD1 albino mice [4]): not the case | anxiolytic effect in the raised cross-shaped labyrinth test (male CD1 albino mice [4]; 50 mg/kg (high doses)): has an anxiolytic effect | number of times the mice entered the open arm (male CD1 albino mice [4]): had no effect | time spent by the animals in the open arm (male CD1 albino mice [4]; increasing doses from 1 mg/kg to 50 mg/kg (P<0.05 at 50 mg/kg)): increased until a significant effect was exhibited at a dose of 50 mg/kg | anxiogenic effect in the Vogel conflict test (male Wistar rats): did not have an anxiogenic effect; also recorded: did not demonstrate an anxiogenic effect | number of times animals consumed water (male Wistar rats): did not decrease | anxiolytic activity (number of crossings between two plates) (NMRI mice): has anxiolytic activity; also recorded: exhibited anxiolytic activity

Source: patent US20090325984A1, “USE OF 1,7-DIMETHYLXANTHINE FOR THE MANUFACTURE OF A NON-ANXIOGENIC PSYCHOANALEPTIC DRUG FOR THE TREATMENT OF A NEUROPSYCHIATRIC DISORDER” (Pierre Fabre Medicament, priority 2006, published 2009)
